#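 Results reflect a 48-hour exposure of cells in 96-well plates to compound at five concentrations. Abbreviation: GI50, concentration required for 50% inhibition of growth.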 Activity calls are given as the source filed them. Cut-off read from the data, not from the text of the source: active = GI50 up to about 1.1 µM and inactive = higher.
# Key:
# Experiment in all cases: inhibition of tumour cell growth, NCI panel, 48 h
# 786-0 = test system: 786-0
# A498 = test system: A498
# A549 = test system: A549
# ACHN = test system: ACHN
# CAKI-1 = test system: CAKI-1
# CCRF-CEM = test system: CCRF-CEM
# COLO 205 = test system: COLO 205
# DMS-114 = test system: DMS-114
# DMS-273 = test system: DMS-273
# EKVX = test system: EKVX
# HCC 2998 = test system: HCC 2998
# HCT-116 = test system: HCT-116
# HCT-15 = test system: HCT-15
# HL-60 = test system: HL-60
# HOP-62 = test system: HOP-62
# HT-29 = test system: HT-29
# K562 = test system: K562
# KM-20L2 = test system: KM-20L2
# KM12 = test system: KM12
# LOX IMVI = test system: LOX IMVI
# LXFL 529 = test system: LXFL 529
# M14 = test system: M14
# MOLT-4 = test system: MOLT-4
# NCI-H226 = test system: NCI-H226
# NCI-H23 = test system: NCI-H23
# NCI-H460 = test system: NCI-H460
# NCI-H522 = test system: NCI-H522
# OVCAR-3 = test system: OVCAR-3
# OVCAR-4 = test system: OVCAR-4
# OVCAR-5 = test system: OVCAR-5
# OVCAR-8 = test system: OVCAR-8
# RPMI-8226 = test system: RPMI-8226
# RXF 393 = test system: RXF 393
# RXF 631 = test system: RXF 631
# SF-268 = test system: SF-268
# SF-295 = test system: SF-295
# SF-539 = test system: SF-539
# SK-MEL-28 = test system: SK-MEL-28
# SK-MEL-2 = test system: SK-MEL-2
# SN12C = test system: SN12C
# SNB-19 = test system: SNB-19
# SNB-78 = test system: SNB-78
# SR = test system: SR
# SW-620 = test system: SW-620
# TK-10 = test system: TK-10
# U-251 = test system: U-251
# UACC-257 = test system: UACC-257
# UO-31 = test system: UO-31
# DLD-1 = test system: DLD-1
# HOP-18 = test system: HOP-18
# HOP-92 = test system: HOP-92
# IGROV-1 = test system: IGROV-1
# M19-MEL = test system: M19-MEL
# MCF7 = test system: MCF7
# Malme-3M = test system: Malme-3M
# NCI/ADR-RES = test system: NCI/ADR-RES
# SK-MEL-5 = test system: SK-MEL-5
# SK-OV-3 = test system: SK-OV-3
# SNB-75 = test system: SNB-75
# UACC-62 = test system: UACC-62
# XF498 = test system: XF498
compound,measurement,setting,value
Cc1ccc(NC(=S)SCCC(=O)O)cc1,GI50,786-0,> 100 µM (inactive)
same,GI50,A498,> 100 µM (inactive)
same,GI50,A549,> 100 µM (inactive)
same,GI50,ACHN,> 100 µM (inactive)
same,GI50,CAKI-1,81.8 µM (inactive)
same,GI50,CCRF-CEM,> 100 µM (inactive)
same,GI50,COLO 205,> 100 µM (inactive)
same,GI50,DMS-114,> 100 µM (inactive)
same,GI50,DMS-273,> 100 µM (inactive)
same,GI50,EKVX,> 100 µM (inactive)
same,GI50,HCC 2998,> 100 µM (inactive)
same,GI50,HCT-116,> 100 µM (inactive)
same,GI50,HCT-15,> 100 µM
same,GI50,HL-60,> 100 µM (inactive)
same,GI50,HOP-62,> 100 µM (inactive)
same,GI50,HT-29,> 100 µM (inactive)
same,GI50,K562,> 100 µM (inactive)
same,GI50,KM-20L2,> 100 µM (inactive)
same,GI50,KM12,> 100 µM (inactive)
same,GI50,LOX IMVI,> 100 µM (inactive)
same,GI50,LXFL 529,> 100 µM (inactive)
same,GI50,M14,> 100 µM (inactive)
same,GI50,MOLT-4,> 100 µM (inactive)
same,GI50,NCI-H226,> 100 µM (inactive)
same,GI50,NCI-H23,> 100 µM (inactive)
same,GI50,NCI-H460,> 100 µM (inactive)
same,GI50,NCI-H522,> 100 µM (inactive)
same,GI50,OVCAR-3,> 100 µM (inactive)
same,GI50,OVCAR-4,> 100 µM (inactive)
same,GI50,OVCAR-5,> 100 µM (inactive)
same,GI50,OVCAR-8,> 100 µM (inactive)
same,GI50,RPMI-8226,> 100 µM (inactive)
same,GI50,RXF 393,> 100 µM (inactive)
same,GI50,RXF 631,> 100 µM (inactive)
same,GI50,SF-268,71.6 µM (inactive)
same,GI50,SF-295,> 100 µM (inactive)
same,GI50,SF-539,> 100 µM (inactive)
same,GI50,SK-MEL-28,> 100 µM (inactive)
same,GI50,SK-MEL-2,> 100 µM (inactive)
same,GI50,SN12C,> 100 µM (inactive)
same,GI50,SNB-19,> 100 µM (inactive)
same,GI50,SNB-78,> 100 µM (inactive)
same,GI50,SR,> 100 µM (inactive)
same,GI50,SW-620,> 100 µM (inactive)
same,GI50,TK-10,> 100 µM (inactive)
same,GI50,U-251,> 100 µM (inactive)
same,GI50,UACC-257,> 100 µM (inactive)
same,GI50,UO-31,> 100 µM (inactive)
O=C1NC(c2cccc3ccccc23)Nc2ccc(O)cc21 (configuration not stated),GI50,A498,23.9 µM (inactive)
same,GI50,A549,33.4 µM (inactive)
same,GI50,CAKI-1,30.5 µM (inactive)
same,GI50,CCRF-CEM,20.2 µM (inactive)
same,GI50,COLO 205,34.1 µM (inactive)
same,GI50,DLD-1,33.5 µM (inactive)
same,GI50,DMS-114,7.35 µM (inactive)
same,GI50,DMS-273,10.4 µM (inactive)
same,GI50,EKVX,42.3 µM (inactive)
same,GI50,HCC 2998,27.2 µM (inactive)
same,GI50,HCT-116,32.1 µM (inactive)
same,GI50,HCT-15,11 µM
same,GI50,HL-60,6.14 µM (inactive)
same,GI50,HOP-18,43.3 µM (inactive)
same,GI50,HOP-62,31.8 µM (inactive)
same,GI50,HOP-92,35 µM (inactive)
same,GI50,HT-29,40.5 µM (inactive)
same,GI50,IGROV-1,35.1 µM (inactive)
same,GI50,K562,8.57 µM (inactive)
same,GI50,KM-20L2,40.3 µM (inactive)
same,GI50,KM12,23.4 µM (inactive)
same,GI50,LOX IMVI,16.2 µM (inactive)
same,GI50,M19-MEL,28.6 µM (inactive)
same,GI50,MCF7,16.1 µM (inactive)
same,GI50,MOLT-4,9.48 µM (inactive)
same,GI50,Malme-3M,24.4 µM (inactive)
same,GI50,NCI-H226,19.5 µM (inactive)
same,GI50,NCI-H23,34 µM (inactive)
same,GI50,NCI-H460,28 µM (inactive)
same,GI50,NCI-H522,22.3 µM (inactive)
same,GI50,NCI/ADR-RES,16 µM (inactive)
same,GI50,OVCAR-3,24.5 µM (inactive)
same,GI50,OVCAR-4,1.1 µM (active)
same,GI50,OVCAR-5,32.6 µM (inactive)
same,GI50,OVCAR-8,36.9 µM (inactive)
same,GI50,RPMI-8226,24.2 µM (inactive)
same,GI50,RXF 393,31 µM (inactive)
same,GI50,SF-268,35.6 µM (inactive)
same,GI50,SF-295,27.5 µM (inactive)
same,GI50,SF-539,33 µM (inactive)
same,GI50,SK-MEL-28,47.1 µM (inactive)
same,GI50,SK-MEL-2,20.4 µM (inactive)
same,GI50,SK-MEL-5,23.8 µM (inactive)
same,GI50,SK-OV-3,41.1 µM (inactive)
same,GI50,SN12C,39.9 µM (inactive)
same,GI50,SNB-19,58.1 µM (inactive)
same,GI50,SNB-75,38.6 µM (inactive)
same,GI50,SNB-78,40.3 µM (inactive)
same,GI50,SW-620,17.6 µM (inactive)
same,GI50,U-251,38.8 µM (inactive)
same,GI50,UACC-257,23.4 µM (inactive)
same,GI50,UACC-62,21 µM (inactive)
same,GI50,UO-31,30.2 µM (inactive)
same,GI50,XF498,24.7 µM (inactive)

# Source: ChEMBL document CHEMBL1201862, “PubChem BioAssay data set” (2004)
